{"source": "paper PMC11079064", "about": "“Discovery of a brain penetrant small molecule antagonist targeting LPA1 receptors to reduce neuroinflammation and promote remyelination in multiple sclerosis” (Scientific Reports, 2024)", "key": {"autotaxin": {"target": "T1, autotaxin (Rattus norvegicus, UniProt Q64610)", "T1 construct": "Male Sprague Dawley rat macrophages were isolated from intraperitoneal lavage fluid; endogenous in cells; host or cells: primary rat peritoneal macrophages", "experiment": "LPA species in macrophage-conditioned media", "format": "cell-based", "settings": "1 µM, 48 h", "description": "Autotaxin (ATX), an enzyme responsible for LPA synthesis, is elevated in CSF samples from multiple sclerosis patients and may be an underlying source of elevated LPA levels in the CNS during disease. […] To confirm the release of LPA from these macrophages, macrophage-conditioned media was taken 30 min or 48 h after plating and various LPA species were measured by mass spectrometry.\nRat macrophages were cultured as described above. Media from wells at 30 m or 48 h post-plating were taken. Media from macrophages treated with 1 µM PF-8380 (autotaxin inhibitor, Sigma, St Louis, MO) for 48 h was also collected. For LPA determination, 20 µl of culture media was aliquoted into glass 12 × 75 mm culture test tubes. 500 µl of 30 mM citric acid/40 mM disodium phosphate buffer (pH 4.0) with 1 ng/ml 17:0 LPA as an internal standard (IS) were also added to the test tubes. 2 ml of 1-butanol were then added to the test tubes, tubes covered with parafilm, vortexed for 10 s, and centrifuged for 10 min at 1000g at 4 °C. After centrifugation, the top layers were transferred to clean test tubes. The bottom layers were extracted again with 1 ml of water-saturated butanol. The test tubes were covered with parafilm, vortexed for 10 s, and centrifuged for 10 min at 1000g at 4 °C. […] After reconstitution, the samples were analyzed by LC–MS/MS using an AB Sciex 6500 + . […]"}, "[1]": {"design": "method as in PMID 34969771, PMID 30201408", "settings": "cited from earlier work"}, "microglia": {"system": "microglia", "experiment": "LPA-induced microglial activation in hippocampal slices", "format": "cell-based, mouse", "settings": "AM152, 10 µM LPA", "description": "Microglial activation was then triggered by the addition of 10 µM LPA, slices incubated for 3 additional hours, then fixed. Slices were immunostained against IBA1 and microglial perimeters were measured as a mean of differentiating between ramified/resting versus rounded/activated microglia.\nBrains were harvested from mice (postnatal day 20, Charles River). […] 400 µm thick coronal slices were cut on a McIlwain tissue chopper and returned to dissection media and separated manually. […] Slices were incubated for 2 h at 37 °C (4 slices per condition). Microglial activation was initiated by adding LPA (18:1, Avanti Polar Lipids) to a final concentration of 10 µM and incubated for 3 h. Slices were then fixed in formalin and for 2 h.\nFor immunohistochemistry, slices were washed for 3 × 15 min in 0.5% Triton-X100 and DPBS. Slices were then stained using IBA-1 antibody (Thermo Scientific) in 10% normal goat serum with 0.5% Triton-X100 in DPBS overnight on a rocker. Slices were then washed in 0.5% Triton-X100 in DPBS 3 × 15 min. Goat anti-mouse Alexa 564 (1:500, Invitrogen, Carlsbad, CA) and […] (Invitrogen, Carlsbad, CA) were diluted in DPBS with 0.5% Triton-X100 and incubated for 2h. Slices were washed 3 × 15 min in DPBS with 0.5% Triton-X100, mounted with Fluoromount and imaged on a Nikon A1R confocal microscope."}, "[2]": {"system": "ROCK (Rho-associated kinase)", "design": "method as in PMID 25289646", "settings": "cited from earlier work"}}, "note": "“Also recorded” adds a separate entry of the source.", "data": [{"compound": "O=C(CCN1CCN(C(=O)OCc2cc(Cl)cc(Cl)c2)CC1)c1ccc2[nH]c(=O)oc2c1", "note": "[PF-8380]", "values": [{"measurement": "effect on increase of LPA species in macrophage-conditioned media", "setting": "autotaxin", "result": "prevents the induction of several LPA species; also recorded: inhibited"}]}, {"compound": "CCCN(C)C(=O)OCc1c(-c2ccc(O[C@H]3CCC[C@H](C(=O)O)C3)c(C)n2)nnn1C", "note": "[BMS-986278]", "values": [{"measurement": "Phase 1 tolerability", "setting": "[1]", "result": "demonstrated Phase 1 tolerability"}]}, {"compound": "Cc1noc(-c2ccc(-c3ccc(C4(C(=O)O)CC4)cc3)cc2)c1NC(=O)O[C@H](C)c1ccccc1", "note": "[AM152, reference compound]", "values": [{"measurement": "effect on LPA-induced decrease in microglial perimeter length", "setting": "microglia", "result": "inhibits microglial activation; also recorded: inhibited"}, {"measurement": "Phase 1 tolerability", "setting": "[1]", "result": "demonstrated Phase 1 tolerability"}]}, {"compound": "O=S(=O)(c1cccc2cnccc12)N1CCCNCC1", "note": "[fasudil]", "values": [{"measurement": "effect on OPC differentiation", "setting": "[2]", "result": "leads to OPC differentiation"}]}]}
